Measurements taken from ChEMBL document CHEMBL3352638, “Improving the MDR reversal activity of 6,17-epoxylathyrane diterpenes” (Bioorg Med Chem, 2014).

Key:
[1] = molecular target: T1, ATP-dependent translocase ABCB1 (Homo sapiens, UniProt P08183); assay: Inhibition of human MDR1 expressed in mouse L5178Y cells assessed as Rhodamine-123 accumulation measured as fluorescence activity at 2 uM after 20 mins by flow cytometry relative to control; assay type: cell-based
[2] = system: L5178Y; assay: Antiproliferative activity against human MDR1 transfected mouse L5178Y cells after 72 hrs by MTT assay; assay type: functional, cell-based
[3] = molecular target: T1, ATP-dependent translocase ABCB1; assay: Inhibition of human MDR1 expressed in mouse L5178Y cells assessed as Rhodamine-123 accumulation measured as fluorescence activity at 20 uM after 20 mins by flow cytometry relative to control; assay type: cell-based
[4] = system: L5178Y; assay: Antiproliferative activity against human MDR1 transfected mouse L5178Y cells after 48 hrs by MTT assay in presence of doxorubicin; assay type: functional
[5] = system: L5178Y; assay: Antiproliferative activity against mouse L5178Y cells after 72 hrs by MTT assay; assay type: functional, cell-based
[6] = molecular target: T1, ATP-dependent translocase ABCB1; assay: Inhibition of human MDR1 expressed in mouse L5178Y cells assessed as Rhodamine-123 accumulation after 20 mins by flow cytometry; assay type: cell-based
[7] = molecular target: T1, ATP-dependent translocase ABCB1; assay: Inhibition of human MDR1 expressed in mouse L5178Y cells assessed as Rhodamine-123 accumulation measured as fluorescence activity at 40 uM after 20 mins by flow cytometry relative to control; assay type: cell-based
[8] = molecular target: T1, ATP-dependent translocase ABCB1; assay: Inhibition of verapamil-stimulated vanadate-sensitive ATPase activity of human MDR1 expressed in Sf9 membrane vesicles assessed as inorganic phosphate production at 2 to 100 uM after 10 mins by colorimetry; assay type: cell membranes; conditions: sf9, 10 min
[9] = molecular target: T1, ATP-dependent translocase ABCB1; assay: Stimulation of vanadate-sensitive ATPase activity of human MDR1 expressed in Sf9 membrane vesicles assessed as inorganic phosphate production at 2 to 100 uM after 10 mins by colorimetry; assay type: cell membranes; conditions: sf9, 10 min
[10] = molecular target: T1, ATP-dependent translocase ABCB1; assay: Inhibition of human MDR1 expressed in mouse L5178Y cells assessed as Rhodamine-123 accumulation measured as fluorescence activity at 80 uM after 20 mins by flow cytometry relative to control; assay type: cell-based

T1 sequence (P08183 whole entry): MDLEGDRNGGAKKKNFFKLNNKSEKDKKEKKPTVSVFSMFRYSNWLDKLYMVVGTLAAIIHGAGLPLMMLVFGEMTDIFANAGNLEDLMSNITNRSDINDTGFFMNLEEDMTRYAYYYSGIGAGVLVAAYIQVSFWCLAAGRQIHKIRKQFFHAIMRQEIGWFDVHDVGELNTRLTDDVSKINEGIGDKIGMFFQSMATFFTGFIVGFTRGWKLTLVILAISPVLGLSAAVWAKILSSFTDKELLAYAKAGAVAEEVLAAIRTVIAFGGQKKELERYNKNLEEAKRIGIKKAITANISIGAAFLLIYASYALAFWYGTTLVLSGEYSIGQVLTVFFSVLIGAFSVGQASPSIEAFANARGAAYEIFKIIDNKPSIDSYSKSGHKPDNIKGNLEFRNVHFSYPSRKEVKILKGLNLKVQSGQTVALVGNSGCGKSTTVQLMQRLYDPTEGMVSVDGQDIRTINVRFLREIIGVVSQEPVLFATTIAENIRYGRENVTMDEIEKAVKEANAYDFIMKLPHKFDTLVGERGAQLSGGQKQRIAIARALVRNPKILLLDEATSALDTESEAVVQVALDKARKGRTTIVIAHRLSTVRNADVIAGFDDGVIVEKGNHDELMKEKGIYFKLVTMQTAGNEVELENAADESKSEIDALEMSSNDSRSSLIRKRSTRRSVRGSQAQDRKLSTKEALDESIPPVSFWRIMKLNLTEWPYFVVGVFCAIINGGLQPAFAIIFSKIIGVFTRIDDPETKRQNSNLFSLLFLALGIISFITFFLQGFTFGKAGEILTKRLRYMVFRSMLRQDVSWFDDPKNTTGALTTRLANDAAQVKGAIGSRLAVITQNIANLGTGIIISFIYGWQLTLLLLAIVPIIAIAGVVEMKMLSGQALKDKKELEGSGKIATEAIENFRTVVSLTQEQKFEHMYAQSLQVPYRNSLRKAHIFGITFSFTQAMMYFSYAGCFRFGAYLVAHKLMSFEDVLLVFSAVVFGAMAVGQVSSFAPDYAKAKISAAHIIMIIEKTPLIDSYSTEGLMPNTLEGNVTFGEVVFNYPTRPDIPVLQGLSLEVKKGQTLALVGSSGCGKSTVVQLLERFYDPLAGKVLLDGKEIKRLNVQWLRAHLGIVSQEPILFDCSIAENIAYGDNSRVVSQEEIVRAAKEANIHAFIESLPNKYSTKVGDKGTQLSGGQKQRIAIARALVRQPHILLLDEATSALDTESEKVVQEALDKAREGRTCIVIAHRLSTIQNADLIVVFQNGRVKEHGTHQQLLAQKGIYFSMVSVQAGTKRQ

C/C1=C\[C@@H]2[C@H](CC[C@]3(CO3)[C@H](O)[C@H]3[C@@H](OC(=O)/C=C/c4ccccc4)[C@@H](C)C[C@]3(O)C1=O)C2(C)C
Ratio [1]: 3.7
IC50 [2]: 105 µM
Ratio [3]: 7.4
CI [4]: 1.4
IC50 [5]: 108 µM

CC(=O)O[C@@H]1[C@H]2[C@@H](OC(=O)c3ccccc3)[C@@H](C)C[C@]2(OC(C)=O)C(=O)/C(C)=C/[C@@H]2[C@H](CC[C@]13CO3)C2(C)C
inhibition (INH) [6]: Dose-dependent effect
Ratio [1]: 63.4
IC50 [2]: 63.3 µM
Ratio [7]: 102.9
Ratio [3]: 80.6
inhibition (INH) [8]: Active
CI [4]: 0.27
IC50 [5]: 50.4 µM
Activity [9]: Active

C/C1=C\[C@@H]2[C@H](CC[C@]3(CO3)[C@H](OC(=O)c3ccccc3)[C@H]3[C@@H](OC(=O)c4ccccc4)[C@@H](C)C[C@]3(OC(=O)c3ccccc3)C1=O)C2(C)C
Ratio [1]: 1.7
IC50 [2]: 59 µM
Ratio [3]: 35.2
CI [4]: 0.79
IC50 [5]: 40.4 µM

CCCCC(CC)C(=O)O[C@@H]1[C@@H]2[C@@H](OC(=O)C(CC)CCCC)[C@]3(CC[C@H]4[C@@H](/C=C(\C)C(=O)[C@@]2(O)C[C@@H]1C)C4(C)C)CO3 (some centres not stated)
Ratio [1]: 5.6
IC50 [2]: 46.6 µM
Ratio [3]: 33.2
CI [4]: 0.46
IC50 [5]: 37 µM

CCCC(=O)O[C@@H]1[C@@H]2[C@@H](OC(=O)CCC)[C@]3(CC[C@H]4[C@@H](/C=C(\C)C(=O)[C@@]2(OC(=O)CCC)C[C@@H]1C)C4(C)C)CO3
inhibition (INH) [6]: Dose-dependent effect
Ratio [1]: 1.5
IC50 [2]: 84.4 µM
Ratio [7]: 98
Ratio [3]: 83.7
CI [4]: 0.33
IC50 [5]: 56.4 µM

CC(=O)O[C@@H]1[C@H]2[C@@H](OC(=O)CC(C)C)[C@@H](C)C[C@]2(OC(C)=O)C(=O)/C(C)=C/[C@@H]2[C@H](CC[C@]13CO3)C2(C)C
IC50 [2]: 92.5 µM
Ratio [10]: 22.6
Ratio [3]: 7.8
CI [4]: 0.43
IC50 [5]: 66.8 µM

C/C1=C\[C@@H]2[C@H](CC[C@]3(CO3)[C@H](OC(=O)c3ccc(C)cc3)[C@H]3[C@@H](OC(=O)c4ccc(C)cc4)[C@@H](C)C[C@]3(O)C1=O)C2(C)C
Ratio [1]: 3.3
IC50 [2]: 47.5 µM
Ratio [3]: 26.5
CI [4]: 0.29
IC50 [5]: 36.6 µM

C/C1=C\[C@@H]2[C@H](CC[C@]3(CO3)[C@H](OC(=O)Cc3ccccc3)[C@H]3[C@@H](OC(=O)Cc4ccccc4)[C@@H](C)C[C@]3(O)C1=O)C2(C)C
inhibition (INH) [6]: Dose-dependent effect
Ratio [1]: 3.9
IC50 [2]: 123 µM
Ratio [7]: 80.8
Ratio [3]: 73.4
CI [4]: 1.38
IC50 [5]: 111 µM

CCCC(=O)O[C@@H]1[C@@H]2[C@@H](OC(C)=O)[C@]3(CC[C@H]4[C@@H](/C=C(\C)C(=O)[C@@]2(OC(C)=O)C[C@@H]1C)C4(C)C)CO3
inhibition (INH) [6]: Dose-dependent effect
Ratio [1]: 8
IC50 [2]: 79.4 µM
Ratio [7]: 96.9
Ratio [3]: 74.3
inhibition (INH) [8]: Active
CI [4]: 0.2
IC50 [5]: 46.4 µM
Activity [9]: Active

CCC(=O)O[C@@H]1[C@@H]2[C@@H](OC(C)=O)[C@]3(CC[C@H]4[C@@H](/C=C(\C)C(=O)[C@@]2(OC(C)=O)C[C@@H]1C)C4(C)C)CO3
IC50 [2]: 43 µM
Ratio [10]: 58.6
Ratio [3]: 1
CI [4]: 0.05
IC50 [5]: 41.6 µM

COc1ccc(C(=O)O[C@@H]2[C@@H]3[C@@H](OC(=O)c4ccc(OC)cc4)[C@]4(CC[C@H]5[C@@H](/C=C(\C)C(=O)[C@@]3(O)C[C@@H]2C)C5(C)C)CO4)cc1
Ratio [1]: 3
IC50 [2]: 86.8 µM
Ratio [3]: 23.3
CI [4]: 0.36
IC50 [5]: 76 µM

C/C1=C\[C@@H]2[C@H](CC[C@]3(CO3)[C@H](O)[C@H]3[C@@H](O)[C@@H](C)C[C@]3(O)C1=O)C2(C)C
IC50 [2]: 89.2 µM
Ratio [10]: 14.8
Ratio [3]: 1.5
CI [4]: 0.66
IC50 [5]: 80.9 µM

C/C1=C\[C@@H]2[C@H](CC[C@]3(CO3)[C@H](OC(=O)c3ccccc3)[C@H]3[C@@H](OC(=O)c4ccccc4)[C@@H](C)C[C@]3(O)C1=O)C2(C)C
Ratio [1]: 2
IC50 [2]: 73.3 µM
Ratio [3]: 22.9
CI [4]: 0.24
IC50 [5]: 68 µM

CC(=O)O[C@@H]1[C@@H]2[C@@H](OC(C)=O)[C@]3(CC[C@H]4[C@@H](/C=C(\C)C(=O)[C@@]2(OC(C)=O)C[C@@H]1C)C4(C)C)CO3
IC50 [2]: 93.5 µM
Ratio [10]: 35
Ratio [3]: 1
CI [4]: 0.24
IC50 [5]: 79.3 µM
